Experimental data as given in US10947274B1 (priority 2018, dated 2021).

Columns and labels:
[1] = type: physicochemical
[2] = molecular target: human α9α10 nicotinic acetylcholine receptor (nAChR) (human) (UniProt Q9UGM1); experiment: cell-based or functional assay
[3] = molecular target: α7 nAChR (Rattus norvegicus, UniProt Q05941); settings: cited from earlier work
Sequence of α7 nAChR (Q05941 23-502 limits assumed): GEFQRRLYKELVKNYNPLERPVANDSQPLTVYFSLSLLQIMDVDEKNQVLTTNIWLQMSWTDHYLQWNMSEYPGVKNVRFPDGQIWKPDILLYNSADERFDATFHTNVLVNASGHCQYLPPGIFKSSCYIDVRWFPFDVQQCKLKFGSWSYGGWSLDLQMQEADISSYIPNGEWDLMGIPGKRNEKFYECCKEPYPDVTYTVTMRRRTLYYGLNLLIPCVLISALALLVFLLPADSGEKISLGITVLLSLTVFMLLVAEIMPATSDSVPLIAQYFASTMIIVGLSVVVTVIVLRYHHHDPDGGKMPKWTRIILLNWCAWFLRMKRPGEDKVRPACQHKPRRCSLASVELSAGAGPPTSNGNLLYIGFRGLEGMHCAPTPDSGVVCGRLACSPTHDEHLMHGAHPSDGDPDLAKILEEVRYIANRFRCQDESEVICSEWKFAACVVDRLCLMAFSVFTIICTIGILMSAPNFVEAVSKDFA

Sequence of human α9α10 nicotinic acetylcholine receptor (nAChR) (human) (Q9UGM1 23-479, chain 1 of 2): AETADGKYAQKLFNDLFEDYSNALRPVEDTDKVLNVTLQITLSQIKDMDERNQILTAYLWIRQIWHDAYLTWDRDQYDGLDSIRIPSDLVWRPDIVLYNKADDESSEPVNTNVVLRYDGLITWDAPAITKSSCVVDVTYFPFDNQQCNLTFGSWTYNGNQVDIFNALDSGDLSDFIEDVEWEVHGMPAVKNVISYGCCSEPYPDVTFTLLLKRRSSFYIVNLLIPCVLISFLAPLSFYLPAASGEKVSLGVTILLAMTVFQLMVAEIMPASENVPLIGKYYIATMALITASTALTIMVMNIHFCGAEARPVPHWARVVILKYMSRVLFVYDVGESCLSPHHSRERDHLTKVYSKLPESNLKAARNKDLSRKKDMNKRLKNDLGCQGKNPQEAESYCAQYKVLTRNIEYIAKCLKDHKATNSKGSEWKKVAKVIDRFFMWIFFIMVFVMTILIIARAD
Sequence of human α9α10 nicotinic acetylcholine receptor (nAChR) (human) (Q9GZZ6 25-450, chain 2 of 2, further chain): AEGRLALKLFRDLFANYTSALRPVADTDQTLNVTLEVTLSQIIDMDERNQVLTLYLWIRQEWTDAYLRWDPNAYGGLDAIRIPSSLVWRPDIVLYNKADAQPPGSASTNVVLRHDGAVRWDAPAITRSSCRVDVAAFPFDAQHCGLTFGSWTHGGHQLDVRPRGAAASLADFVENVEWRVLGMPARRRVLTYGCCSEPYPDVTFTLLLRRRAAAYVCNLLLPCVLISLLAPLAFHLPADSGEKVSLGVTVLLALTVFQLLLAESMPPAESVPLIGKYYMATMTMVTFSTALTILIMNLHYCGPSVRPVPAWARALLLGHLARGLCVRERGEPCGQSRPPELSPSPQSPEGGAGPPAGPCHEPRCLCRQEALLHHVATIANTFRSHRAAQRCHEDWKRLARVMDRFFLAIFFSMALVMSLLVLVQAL

For GCCTDPRC(Cit)(I-3-Y)QCY [RgIA4], the “area under the curve, % of the total” value ([1]; at 8 h) was 26.3% and the “share of intact (globular) peptide over time” value ([1]; pH 7.3) was “minority component”.

For [C3Pen;14R]RgIA5 (peptide), the IC50 (nM), block of the acetylcholine response, voltage-clamped Xenopus oocytes [2] was 0.5 nM.

For α-conotoxin ImI, the IC50 [3] is given as 69.3 ± 15.5 nM.
